Results on 24 compounds are retold here after patent US10889565B2, “4-hydroxy-3-sulfonylpyridin-2(1H)-ones as APJ receptor agonists” (BRISTOL-MYERS SQUIBB COMPANY, priority 2016, dated 2021).

The structures appear in SMILES notation.

The target in this assay is T1, human APJ receptor (Homo sapiens, UniProt P35414).
T1 construct: expressed in transfected cells
T1 sequence (P35414 1-380): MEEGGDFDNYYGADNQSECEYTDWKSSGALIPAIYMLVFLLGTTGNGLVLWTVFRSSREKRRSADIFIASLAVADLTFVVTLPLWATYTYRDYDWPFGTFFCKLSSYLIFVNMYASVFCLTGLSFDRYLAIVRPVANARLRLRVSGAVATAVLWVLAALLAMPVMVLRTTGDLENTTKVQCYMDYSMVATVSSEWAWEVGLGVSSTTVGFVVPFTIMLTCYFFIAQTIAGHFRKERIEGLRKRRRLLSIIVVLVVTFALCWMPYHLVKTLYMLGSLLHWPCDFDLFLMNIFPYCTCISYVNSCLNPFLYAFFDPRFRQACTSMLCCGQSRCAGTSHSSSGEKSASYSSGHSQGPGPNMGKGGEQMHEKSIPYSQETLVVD
The experiment in a line: Intracellular cAMP accumulation assay (APJ hcAMP, HTRF). Type of assay: cell-based. To be noted: HEK293 cells stably expressing human APJ receptor; inhibition of forskolin-mediated cAMP production; read-out: Human APJ cAMP EC50 Potency range. On the procedure: Intracellular cAMP Accumulation Assay
HEK293 cells stably expressing human APJ receptor were used to assess the activity of compounds. Cultured cells were detached and resuspended in the cAMP Homogeneous Time-Resolved Fluorescence (HTRF) assay buffer (Cisbio cat; #62AM4PEJ). The assay was performed in 384-well assay plates (Perkin-Elmer; cat #6008289) according to assay protocol provided by the manufacturer. Serial dilutions of a compound together with assay buffer containing […] IBMX and 2 μM forskolin were added to each well containing 5,000 cells and incubated for 30 minutes at room temperature. Subsequently, cAMP D2 reagent was added in the lysis buffer followed by the EuK antibody (Cisbio; cat #62AM4PEJ) and incubated for 60 min. The fluorescence emission ratio was measured using fluorometer. The intracellular cAMP concentrations (compound-stimulated inhibition of forskolin-mediated cAMP production) were calculated by extrapolation from a standard curve using known cAMP concentrations. The EC50 values were obtained by fitting the data to a sigmoidal concentration-response curve with variable slope. The maximal achievable inhibition of forskolin-induced cAMP levels (Ymax) for each compound was expressed as relative percentage of inhibition attained using pyroglutamated apelin-13 ((Pyr1)apelin-13) peptide, which was set to 100%.
The examples disclosed below were tested in the APJ in vitro assays described above and were found having human APJ cyclic AMP (hcAMP) activity. The EC50 value of each compound is presented at the end of the example description.
The biological activity of the exemplified compounds of this invention determined by the assay described above is shown at the end of each example.
What is called EC50 is the midpoint of the concentration-response curve. Regarding `CCCCc1[nH]c(=O)c(S(=O)(=O)c2ccc(Nc3ccc(F)nc3)cc2)c(O)c1-c1c(OC)cccc1OC` [Example 28, 6-butyl-5-(2,6-dimethoxyphenyl)-3-((4-((6-fluoropyridin-3-yl)amino)phenyl)sulfonyl)-4-hydroxypyridin-2(1H)-one], the EC50 lay within 0.01 to 10 nM. As for `CCCCc1[nH]c(=O)c(S(=O)(=O)c2ccc(Nc3ccc(F)cc3)cc2)c(O)c1-c1c(OC)cccc1OC` [Example 29, 6-butyl-5-(2,6-dimethoxyphenyl)-3-((4-((4-fluorophenyl)amino)phenyl)sulfonyl)-4-hydroxypyridin-2(1H)-one], the concentration giving a half-maximal response (EC50) fell in the range of 0.01 to 10 nM.

On to `CCCCc1[nH]c(=O)c(S(=O)(=O)c2ccc(NC(=O)c3ccc(F)cc3)cc2)c(O)c1-c1c(OC)cccc1OC` [Example 30, N-(4-((6-butyl-5-(2,6-dimethoxyphenyl)-4-hydroxy-2-oxo-1,2-dihydropyridin-3-yl)sulfonyl)phenyl)-4-fluorobenzamide], for which the 50% effective concentration (EC50) lay within 0.01 to 10 nM. Under `CCCCc1[nH]c(=O)c(S(=O)(=O)c2ccc(NC(=O)Nc3ccc(F)cc3)cc2)c(O)c1-c1c(OC)cccc1OC` [Example 31, 1-(4-((6-butyl-5-(2,6-dimethoxyphenyl)-4-hydroxy-2-oxo-1,2-dihydropyridin-3-yl)sulfonyl)phenyl)-3-(4-fluorophenyl)urea] stands 0.01 to 10 nM; under `CCCCc1[nH]c(=O)c(S(=O)(=O)c2ccc(Br)cn2)c(O)c1-c1c(OC)cccc1OC` [Example 32, 3-((5-bromopyridin-2-yl)sulfonyl)-6-butyl-5-(2,6-dimethoxyphenyl)-4-hydroxypyridin-2(1H)-one], 0.01 to 10 nM. Next, `CCCCc1[nH]c(=O)c(S(=O)(=O)c2ccc(-c3ccnc(F)c3C)cn2)c(O)c1-c1c(OC)cccc1OC` [Example 33, 6-butyl-5-(2,6-dimethoxy-phenyl)-3-((2′-fluoro-3′-methyl-[3,4′-bipyridin]-6-yl)sulfonyl)-4-hydroxy-pyridin-2(1H)-one]: 0.01 to 10 nM; `CCCCc1[nH]c(=O)c(S(=O)(=O)c2ccc(-c3ccncc3C)cn2)c(O)c1-c1c(OC)cccc1OC` [Example 34, 6-butyl-5-(2,6-dimethoxy-phenyl)-4-hydroxy-3-((3′-methyl-[3,4′-bipyridin]-6-yl)sulfonyl) pyridin-2(1H)-one]: 0.01 to 10 nM; `CCCCc1[nH]c(=O)c(S(=O)(=O)c2ccc(-c3ccc(OC(F)(F)F)cc3)cn2)c(O)c1-c1c(OC)cccc1OC` [Example 35, 6-butyl-5-(2,6-dimethoxy-phenyl)-4-hydroxy-3-((5-(4-(trifluoro-methoxy)phenyl)pyridin-2-yl)sulfonyl) pyridin-2(1H)-one]: 0.01 to 10 nM. On to `CCCCc1[nH]c(=O)c(S(=O)(=O)c2ccc(-c3ccc(F)cc3C)cn2)c(O)c1-c1c(OC)cccc1OC` [Example 36, 6-butyl-5-(2,6-dimethoxy-phenyl)-3-((5-(4-fluoro-2-methylphenyl)pyridin-2-yl)sulfonyl)-4-hydroxy-pyridin-2(1H)-one], for which the EC50 lay within 0.01 to 10 nM. As for `CCCCc1[nH]c(=O)c(S(=O)(=O)c2ccc(-c3ccccc3C)cn2)c(O)c1-c1c(OC)cccc1OC` [Example 37, 6-butyl-5-(2,6-dimethoxy-phenyl)-4-hydroxy-3-((5-(o-tolyl)pyridin-2-yl)sulfonyl) pyridin-2(1H)-one], the EC50 is 0.01 to 10 nM.

In the case of `CCCCc1[nH]c(=O)c(S(=O)(=O)c2ccc(-c3cccc(F)c3C)cn2)c(O)c1-c1c(OC)cccc1OC` [Example 38, 6-butyl-5-(2,6-dimethoxy-phenyl)-3-((5-(3-fluoro-2-methylphenyl)pyridin-2-yl)sulfonyl)-4-hydroxy-pyridin-2(1H)-one], the EC50 lay in the range of 0.01 to 10 nM. With `CCCCc1[nH]c(=O)c(S(=O)(=O)c2ccc(C)cn2)c(O)c1-c1c(OC)cccc1OC` [Example 39, 6-butyl-5-(2,6-dimethoxy-phenyl)-4-hydroxy-3-((5-methyl-pyridin-2-yl)sulfonyl) pyridin-2(1H)-one], the EC50 was in the range of 0.01 to 10 nM. For the compound `CCCCc1[nH]c(=O)c(S(=O)(=O)c2ccc(-c3ccnc(N4CCOCC4)c3F)cn2)c(O)c1-c1c(OC)cccc1OC` [Example 40, 6-butyl-5-(2,6-dimethoxy-phenyl)-3-((3′-fluoro-2′-morpholino-[3,4′-bipyridin]-6-yl)sulfonyl)-4-hydroxypyridin-2(1H)-one], the concentration giving a half-maximal response (EC50) lay in the range of 0.01 to 10 nM. Under `CCCCc1[nH]c(=O)c(S(=O)(=O)c2ccc(-c3ccc(F)nc3C)cn2)c(O)c1-c1c(OC)cccc1OC` [Example 41, 6-butyl-5-(2,6-dimethoxy-phenyl)-3-((6′-fluoro-2′-methyl-[3,3′-bipyridin]-6-yl)sulfonyl)-4-hydroxypyridin-2(1H)-one] stands 0.01 to 10 nM.

Turning to `CCCCc1[nH]c(=O)c(S(=O)(=O)c2ccc(-c3ccc(F)nc3)cn2)c(O)c1-c1c(OC)cccc1OC` [Example 42, 6-butyl-5-(2,6-dimethoxy-phenyl)-3-((6′-fluoro-[3,3′-bipyridin]-6-yl)sulfonyl)-4-hydroxypyridin-2(1H)-one], the EC50 fell in the range of 0.01 to 10 nM. Under `CCCCc1[nH]c(=O)c(S(=O)(=O)c2ccc(-c3ccc(F)cc3)cn2)c(O)c1-c1c(OC)cccc1OC` [Example 43, 6-butyl-5-(2,6-dimethoxy-phenyl)-3-((5-(4-fluorophenyl)pyridin-2-yl)sulfonyl)-4-hydroxypyridin-2(1H)-one] stands 0.01 to 10 nM; under `CCCCc1[nH]c(=O)c(S(=O)(=O)c2ccc(-c3ccnc(OC)c3)cn2)c(O)c1-c1c(OC)cccc1OC` [Example 44, 6-butyl-5-(2,6-dimethoxy-phenyl)-4-hydroxy-3-((2′-methoxy-[3,4′-bipyridin]-6-yl)sulfonyl) pyridin-2(1H)-one], 0.01 to 10 nM.

Take `CCCCc1[nH]c(=O)c(S(=O)(=O)c2ccc(-c3ccc(C(=O)NC4CC4)cc3)cn2)c(O)c1-c1c(OC)cccc1OC` [Example 45, 4-(6-((6-butyl-5-(2,6-dimethoxy-phenyl)-4-hydroxy-2-oxo-1,2-dihydro-pyridin-3-yl)sulfonyl)pyridin-3-yl)-N-cyclopropyl-benzamide]: the EC50 was 0.01 to 10 nM.

For `CCCCc1[nH]c(=O)c(S(=O)(=O)c2ccccn2)c(O)c1-c1c(OC)cccc1OC` [Example 46, 6-butyl-5-(2,6-dimethoxy-phenyl)-4-hydroxy-3-(pyridin-2-ylsulfonyl) pyridin-2(1H)-one], the EC50 lay in the range of 0.01 to 10 nM. Consider `CCCCc1[nH]c(=O)c(S(=O)(=O)c2ccc(-c3ccnc4[nH]ccc34)cn2)c(O)c1-c1c(OC)cccc1OC` [Example 47, 3-((5-(1H-pyrrolo[2,3-b]pyridin-4-yl)pyridin-2-yl)sulfonyl)-6-butyl-5-(2,6-dimethoxy-phenyl)-4-hydroxy-pyridin-2(1H)-one], for which the EC50 was in the range of 0.01 to 10 nM. Under `CCCCc1[nH]c(=O)c(S(=O)(=O)c2nnc[nH]2)c(O)c1-c1c(OC)cccc1OC` [Example 48, 3-((4H-1,2,4-triazol-3-yl)sulfonyl)-6-butyl-5-(2,6-dimethoxy-phenyl)-4-hydroxy-pyridin-2(1H)-one] stands 10 to 100 nM. Take `C=C(C)c1ccc(S(=O)(=O)c2c(O)c(-c3c(OC)cccc3OC)c(CCCC)[nH]c2=O)nc1` [Example 49, 6-Butyl-5-(2,6-dimethoxyphenyl)-4-hydroxy-3-((5-(prop-1-en-2-yl)pyridin-2-yl)sulfonyl)pyridin-2(1H)-one]: the EC50 lay in the range of 0.01 to 10 nM. For `CCCCc1[nH]c(=O)c(S(=O)(=O)c2ccc(C(C)C)cn2)c(O)c1-c1c(OC)cccc1OC` [Example 50, 6-Butyl-5-(2,6-dimethoxyphenyl)-4-hydroxy-3-((5-isopropylpyridin-2-yl)sulfonyl)pyridin-2(1H)-one], the EC50 lay in the range of 0.01 to 10 nM. Regarding `CCCCc1[nH]c(=O)c(S(=O)(=O)c2ccc(C3CC3)cn2)c(O)c1-c1c(OC)cccc1OC` [Example 51, 6-Butyl-3-((5-cyclopropylpyridin-2-yl)sulfonyl)-5-(2,6-dimethoxyphenyl)-4-hydroxypyridin-2(1H)-one], the EC50 was 0.01 to 10 nM.
